Assay results reported in publication PMC3177598 (Bioorganic & medicinal chemistry letters, 2008).

How the values were obtained:
mAChRs (M1, M3 and M5) = conditions: in our hands; ref [8]; cited from earlier work
D2 = D2 (Homo sapiens, UniProt P14416); assay: D2 antagonist activity / D2 inhibition; assay type: cell-based
Sequence of D2 (P14416 whole entry): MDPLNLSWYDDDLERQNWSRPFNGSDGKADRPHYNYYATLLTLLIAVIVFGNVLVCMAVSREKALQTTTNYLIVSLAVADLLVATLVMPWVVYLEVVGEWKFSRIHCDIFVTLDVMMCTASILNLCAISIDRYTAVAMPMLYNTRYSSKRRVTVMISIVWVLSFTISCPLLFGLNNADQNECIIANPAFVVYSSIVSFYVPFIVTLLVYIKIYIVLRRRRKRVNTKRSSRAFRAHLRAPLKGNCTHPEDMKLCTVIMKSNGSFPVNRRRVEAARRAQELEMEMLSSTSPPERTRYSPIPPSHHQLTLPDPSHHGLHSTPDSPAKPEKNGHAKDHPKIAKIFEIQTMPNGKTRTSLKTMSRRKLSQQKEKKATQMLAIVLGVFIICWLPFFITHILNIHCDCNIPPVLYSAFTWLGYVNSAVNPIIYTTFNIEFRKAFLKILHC

Compound | mAChR subtypes activated (in words) (mAChRs (M1, M3 and M5)) | D2 inhibition (in words) (D2)
CC[C@@H]1SC2(CCN(C)CC2)NC1=O [AF267B] | activates M1, M3 and M5, and is M3 preferring | 
Cc1ccccc1CN1CCC(N2CCC(n3c(=O)[nH]c4cc(F)ccc43)CC2)CC1 [Compound 20b] |  | no significant D2 inhibition
Cc1ccccc1CN1CCC(N2CCC(n3c(=O)[nH]c4ccc(F)cc43)CC2)CC1 [Compound 20c] |  | no significant D2 inhibition
